From patent US20240299595A1, “CANCER THERANOSTIC COMPOSITIONS COMPRISING BIGUANIDE COMPLEXES OF GROUP 7 TRANSITION METALS AND USES THEREOF” (BOARD OF REGENTS, THE UNIVERSITY OF TEXAS SYSTEM, priority 2021, published 2024)
Blank lines part the entries; values can stand above or below the molecule they belong to.

What was measured:
[1] = log P from octanol and PBS pH 7.4; type: physicochemical
A2789-cp20 = assay: MTT cytotoxicity, ovarian cancer cell line A2789-cp20; type: cell-based; details: 72 hours
Description: (§1) Finally, a comparison study of the cytotoxicity of Re-Phen and phenformin in a panel of ovarian cancer cell lines by MTT assay after a 72 hour incubation period was conducted. Ovarian cells were seeded at 5000 cells/well in 96-well plates overnight, and treated with Re-Phen or phenformin in different concentrations (from 4.57×10^−4 mM to 1.0 mM in 3-fold increase) at 37° C. for 72 hours. Cell viability was measured using the MTT assay. The absorption at 590 nm was measured at microplate reader (SpectraMax, Molecular Device, San Diego, CA) to quantify cell numbers. The proportion of cells was normalized to that of untreated cells and expressed as mean±standard error of the mean (SEM) (n=5-6). The resulting reduced viability with half-maximal inhibitory concentration (IC50) values of mM were calculated by a sigmoidal dose-response (variable slope) curve-fitting using GraphPad Prism software. The data are shown in FIG. 19A (Re-Phen) and FIG. 19B (phenformin). […] In fact, Re-Phen is shown to display >2,000-fold and >5,000-fold higher cytotoxicity against OVACAR-8 and SKOV3 (Table 2) human ovarian cancer cell lines, respectively.

HeyA8 = assay: MTT cytotoxicity, ovarian cancer cell line HeyA8; type: cell-based
Description: as §1

OVCAR8 = assay: MTT cytotoxicity, ovarian cancer cell line OVCAR8; type: cell-based, human
Description: as §1

SKOV3 = assay: MTT cytotoxicity, ovarian cancer cell line SKOV3; type: cell-based, human
Description: as §1

[2] = test system: orthotopic Kras* murine PDAC tumor; assay: Antitumor efficacy, syngeneic Kras* orthotopic PDAC model; type: in vivo, C57BL/6 mice; details: 10 daily intraperitoneal injections, 50 mg/kg/injection
Description: FIG. 6A outlines an in vivo experiment assessing antitumor activity of Re-Phen against orthotopic Kras* murine PDAC tumor. Male C57BL/6 mice were inoculated in the pancreas with iKrasG12D murine tumor cells. Treatments were initiated on day 7 after tumor cells inoculation. Each mouse received 10 daily intraperitoneal injections of phenformin or Re-Phen at a dose of 50 mg/kg/injection (100 μL/mouse). Control mice received 50/50 (v/v) Cremorphor EL/absolute ethanol, further diluted at 1:4 (v/v) ratio with saline (100 μL/mouse) before injection.
For antitumor efficacy study, the syngeneic Kras* orthotopic PDAC model was used. Kras* PDAC cells established from transgenic mouse model of PDAC with inducible KrasG12D mutation were inoculated into the pancreas of 6-week-old female C57BL/6 mice (Taconic Biosciences, Rensselaer, NY). Treatments were initiated on day 7 after tumor cells inoculation when tumors were ˜5 mm in diameter. Each mouse received 10 daily intraperitoneal injections of phenformin or Re-Phen at a dose of 50 mg/kg/injection (100 μL/mouse) (FIG. 6A). Each drug was formulated in 50/50 (v/v) Cremorphor EL/absolute ethanol, which that was further diluted at 1:4 (v/v) ratio with saline before injection. Animals were weighted daily to record possible adverse effects. Animals were euthanized on day 16 after the last injection. Tumors were harvested and weighted, fixed in formalin, embedded in paraffin, and cut into 4-μm sections. Slides were immunohistochemically stained with the proliferation marker Ki67, counterstained with hematoxylin and visualized under a brightfield microscope at 100× or 200× magnification.

[3] = test system: PDAC cells (Kras*, MiaPaca-2); assay: Annexin V/PI flow cytometry cell death; type: cell-based; details: 250 μM, 24 hours, Kras* and MiaPaca-2 cell lines
Source text: Vehicle (DMSO) treated cells were used as a control.
AMPK is a key enzyme that becomes activated under nutrient stress. Annexin V/PI double staining kit was used to detected cell death in flow cytofluorimetric analyses. […] In Kras* cell line, cells died largely of necrosis; in MiaPaca-2 cell line, cells died mostly of apoptosis.

PDAC cells [4] = assay: JC-10 mitochondrial membrane potential assay; type: cell-based; details: JC-10 microplate assay kit
Description: The fluorescent intensities for J-aggregates (Ex/Em=540/590 nm) and monomeric forms (Ex/Em=490/525 nm) of JC-10 were measured with a microplate reader. Fluorescence intensity ratio measured at 525 nm/590 nm represents the change of mitochondrial membrane potential. Data are presented as mean±SD (n=4). *p<0.05; **p<0.01; ***p<0.001.
Both Re-Phen and phenformin altered the mitochondrial functions and metabolic state of PDAC cells. The fluorescent intensities for both monomeric forms (Ex/Em=490/525 nm) and J-aggregates (Ex/Em=540/590 nm) of JC-10 change upon mitochondrial membrane polarization. Thus, an increase in the ratio of fluorescence intensities measured at 525 nm (monomeric form) over 590 nm (aggregates) represents a decrease in mitochondrial membrane potential.

PDAC cells [5] = assay: Seahorse mito-stress test (oxygen consumption rate); type: cell-based; details: 4-hour treatments, Seahorse XF24e
MiaPaca-2 cells = assay: Untargeted IC-MS metabolomics; type: cell-based
Description: Samples were measured by untargeted IC-MS after 12 hours of treatment (n=3).
Metabolites were extracted from lysed cells and samples were measured by untargeted IC-MS (n=3). Data are expressed as mean±SD (n=3). *p<0.05 compared to phenformin.
Following, untargeted IC-MS was used to analyze changes in cellular metabolites.

[6] = test system: normal cells (RAW264.7, NIH3T3, hTERT-HPNE); assay: MTT cytotoxicity against normal cells; type: cell-based; details: 72 hours
Description: Next, RAW264.7 (FIG. 14A), NIH3T3 (FIG. 14B), or hTERT-HPNE (FIG. 14C) cells were seeded in 96-well plates (5000 cells/well) overnight, and treated with Re-Phen or phenformin in concentrations ranging from 4.57×10−4 mM to 1.0 mM at 37° C. for 72 hours. Cell viability was measured using the MTT assay. The proportion of cells was normalized to that of untreated cells and expressed as mean±standard error of the mean (SEM) (n=5). The half-maximal inhibitory concentration (IC50) values were calculated by a sigmoidal dose-response (variable slope) curve-fitting using GraphPad Prism software.

[7] = Re-Phen versus phenformin, Table 2

SMILES: N=C(N)NC(=N)NCCc1ccccc1.[C-]#[O+].[C-]#[O+].[C-]#[O+].[Re+] [Re-Phen]
log P ([1]; octanol and phosphate-buffered saline (PBS) at pH 7.4): 1.07±0.08
IC50 (A2789-cp20): 260 µM
IC50 (HeyA8; 72 hours): 82 µM
IC50 (OVCAR8; MTT, 72 hours): 110 µM
fold higher cytotoxicity against OVACAR-8 (OVCAR8; [7]): > 2,000 fold
IC50 (SKOV3; MTT, 72 hours): 35 µM
fold higher cytotoxicity against SKOV3 (SKOV3; [7]): > 5,000 fold
Ki67+ proliferating cells in tumors (IHC) compared to vehicle [2]: markedly reduced Ki67+ proliferating cells
change in body weight [2]: No significant change in body weight
tumor size compared to vehicle control [2]: significantly reduced tumor size
induction of cell death [3]: more potent than phenformin
mitochondrial membrane potential (PDAC cells [4]): reduced mitochondrial membrane potential
mitochondria respiration (OCR) (PDAC cells [5]): suppressed mitochondria respiration
purine nucleotide pool compared to phenformin (MiaPaca-2 cells): increased purine nucleotide pool
pyrimidine nucleotide pool (MiaPaca-2 cells): decreased pyrimidine nucleotide pool
level of 3-phosphoglycerate (3-PG) (MiaPaca-2 cells; 100 μM, 12 h): increased the level of 3-phosphoglycerate (3-PG) more than phenformin did
level of phosphoenolpyruvate (PEP) (MiaPaca-2 cells; 100 μM, 12 h): suppressed the level of phosphoenolpyruvate (PEP)
level of glutathione (GSH) (MiaPaca-2 cells; 200 μM, 12 hours): increased the level of glutathione (GSH)
TCA cycle: level of succinate and aspartate versus vehicle (MiaPaca-2 cells; 12 h): reduced level of succinate and aspartate
cytotoxicity against normal cells [6]: generally less cytotoxic than phenformin

logP ([1]; pH 7.4): -0.72 ± 0.02
SMILES: [H]/N=C(/N)N/C(=N/[H])NCCc1ccccc1 [Phenformin, N-phenylethyl biguanide, reference compound]
IC50 (A2789-cp20): 100 µM
IC50 (HeyA8; HEY A8, 72 hours): 22 µM
Ki67+ proliferating cells in tumors (IHC) compared to vehicle [2]: markedly reduced Ki67+ proliferating cells
change in body weight [2]: No significant change in body weight
mitochondrial membrane potential (PDAC cells [4]): reduced mitochondrial membrane potential
mitochondria respiration (OCR) (PDAC cells [5]): suppressed mitochondria respiration
pyrimidine nucleotide pool (MiaPaca-2 cells): decreased pyrimidine nucleotide pool
TCA cycle: level of succinate and aspartate versus vehicle (MiaPaca-2 cells; 12 h): reduced level of succinate and aspartate
